Test results published in ChEMBL document CHEMBL1144890, “3D QSAR analyses-guided rational design of novel ligands for the (alpha4)2(beta2)3 nicotinic acetylcholine receptor” (J Med Chem, 2003).

Target: Neuronal acetylcholine receptor; alpha4/beta2 (Rattus norvegicus, UniProt P09483+P12390)
Assay: In vitro binding affinity towards (alpha-4)2(beta-2)3 neuronal nicotinic acetylcholine receptor in P2 membrane fractions of rat forebrain
Format: cell membranes

Sequence of Neuronal acetylcholine receptor; alpha4/beta2 (P09483 whole entry): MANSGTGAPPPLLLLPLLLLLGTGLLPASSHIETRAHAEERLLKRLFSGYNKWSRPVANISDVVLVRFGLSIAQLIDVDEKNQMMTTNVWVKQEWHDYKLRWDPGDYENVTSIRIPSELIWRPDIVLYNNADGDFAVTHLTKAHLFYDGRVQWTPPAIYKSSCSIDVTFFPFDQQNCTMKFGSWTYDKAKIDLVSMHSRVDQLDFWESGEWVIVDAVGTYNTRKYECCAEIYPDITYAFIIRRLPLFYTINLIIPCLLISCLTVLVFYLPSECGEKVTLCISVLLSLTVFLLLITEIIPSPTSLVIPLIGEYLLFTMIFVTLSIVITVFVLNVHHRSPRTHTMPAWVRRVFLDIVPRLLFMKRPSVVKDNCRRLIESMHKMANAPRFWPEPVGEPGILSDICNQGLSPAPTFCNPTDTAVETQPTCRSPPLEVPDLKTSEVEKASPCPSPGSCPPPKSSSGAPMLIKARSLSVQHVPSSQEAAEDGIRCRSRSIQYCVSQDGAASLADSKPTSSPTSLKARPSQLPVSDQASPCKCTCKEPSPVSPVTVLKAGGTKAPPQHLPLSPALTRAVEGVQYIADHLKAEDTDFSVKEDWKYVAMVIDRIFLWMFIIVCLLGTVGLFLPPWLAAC
Sequence of Neuronal acetylcholine receptor; alpha4/beta2 (P12390 whole entry): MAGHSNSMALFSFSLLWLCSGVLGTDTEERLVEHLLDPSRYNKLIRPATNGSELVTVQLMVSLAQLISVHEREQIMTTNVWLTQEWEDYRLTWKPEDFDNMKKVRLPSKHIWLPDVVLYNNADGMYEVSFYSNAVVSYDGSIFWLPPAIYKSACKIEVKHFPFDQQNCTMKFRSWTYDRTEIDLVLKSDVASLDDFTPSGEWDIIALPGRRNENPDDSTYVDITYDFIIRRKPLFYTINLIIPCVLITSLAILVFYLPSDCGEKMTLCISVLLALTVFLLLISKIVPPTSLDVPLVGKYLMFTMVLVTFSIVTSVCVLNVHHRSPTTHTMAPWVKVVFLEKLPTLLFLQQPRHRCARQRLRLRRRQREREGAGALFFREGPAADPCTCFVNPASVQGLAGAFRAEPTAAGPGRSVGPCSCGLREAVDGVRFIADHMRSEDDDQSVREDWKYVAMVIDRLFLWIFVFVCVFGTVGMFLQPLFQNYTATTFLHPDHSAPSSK

| Compound | Ki |
| --- | --- |
| C1=C(c2cccnc2)C2CCC(CC1)N2 (centres undefined) | 0.0513 nM |
| CN1C2CCC1C(c1ccc(F)nc1)C2 (centres undefined) | 0.0282 nM |
| COC(=O)C1=C(c2cccnc2)CC2CCC1N2C (centres undefined) | 4900 nM |
| CN1C2CCC1CN(c1ccc(Cl)nc1)CC2 (centres undefined) | 0.871 nM |
| C1=C(c2cncnc2)CC2CCC1N2 (centres undefined) | 0.661 nM |
| C1=C(c2cccnc2)C2CCN1CC2 | 7.59 nM |
| c1ncc2c(n1)CC1CCC2N1 (centres undefined) | 676 nM |
| O=c1c(Cl)ccc2n1CC1CNCC2C1 (centres undefined) | 0.0224 nM |
| O=c1c(I)ccc2n1CC1CNCC2C1 (centres undefined) | 0.017 nM |
| CN1C2CC=C(c3cncnc3)C1CC2 (centres undefined) | 12.6 nM |
| CN(C)C(=O)C1=CCC2CCC1N2 (centres undefined) | 61700 nM |
| CN1C2C=C(c3ccc(Cl)nc3)CC1CC2 (centres undefined) | 1.55 nM |
| O=c1cccc2n1C[C@@H]1CNC[C@H]2C1 [CYTISINICLINE] | 0.123 nM |
| c1cncc(C2CC3CCC2N3)c1 (centres undefined) [DESCHLOROEPIBATIDINE] | 0.0257 nM |
| Clc1nccnc1C1=CC2CCC(C1)N2 (centres undefined) | 209 nM |
| CN1C2CCC1CN(c1ccnnc1)CC2 (centres undefined) | 0.525 nM |
| CN1C2CCC1C(c1ccc(Cl)nc1)C2 (centres undefined) | 0.0269 nM |
| Clc1ncc(C2=CCC3CCC2N3)cn1 (centres undefined) | 2 nM |
| CN1C2CC=C(c3cccnc3)C1CC2 (centres undefined) | 9.55 nM |
| CC(=O)C1=CCC2CCC1N2 (centres undefined) | 93.3 nM |
| COC(=O)C1=C(c2cncnc2)CC2CCC1N2C (centres undefined) | 214 nM |
| COC(=O)C1=C(c2ccc(Cl)nc2)CC2CCC1N2C (centres undefined) | 1660 nM |

| Compound | Ki |
| --- | --- |
| c1nncc2c1CC1CCC2N1 (centres undefined) | 75.9 nM |
| CN1C2C=C(c3cncnc3)CC1CC2 (stereo in doubt; 58) | 1.26 nM |
| C1=C(c2cnccn2)C2CCC(CC1)N2 (centres undefined) | 12 nM |
| O=c1c(Br)ccc2n1CC1CNCC2C1 (centres undefined) | 0.01 nM |
| CN1C2CCC1CN(c1ccc(Cl)nn1)CC2 (centres undefined) | 0.55 nM |
| C1=C(c2cnccn2)C2CCC(C1)N2 (centres undefined) | 398 nM |
| O=c1ccc(Br)c2n1CC1CNCC2C1 (centres undefined) | 0.309 nM |
| CN(C)C(=S)C1=CCC2CCC1N2C (centres undefined) | > 20000 nM |
| Brc1ccc(C2CC3CCC2N3)cn1 (centres undefined) | 0.0447 nM |
| Cc1cc(C2=CCC3CCC2N3C)on1 (centres undefined) | 31.6 nM |
| Clc1ncc(C2=CC3CCC(C2)N3)cn1 (centres undefined) | 0.708 nM |
| c1nncc2c1CCC1CCC2N1 (centres undefined) | 34.7 nM |
| Clc1nccnc1C1=CCC2CCC1N2 (centres undefined) | 4170 nM |
| O=c1c(I)cc(I)c2n1CC1CNCC2C1 (centres undefined) | 0.525 nM |
| Ic1ccc(C2CC3CCC2N3)cn1 (centres undefined) | 0.0251 nM |
| CN1C2CCC1C(c1ccc(Br)nc1)C2 (centres undefined) | 0.0363 nM |
| O=c1ccc(Cl)c2n1CC1CNCC2C1 (centres undefined) | 2.51 nM |
| Clc1ncc(C2=CCCC3CCC2N3)cn1 (centres undefined) | 0.151 nM |
| C1=C(c2cccnc2)CC2CCC1N2 (centres undefined) | 0.257 nM |
| C1=C(c2cncnc2)C2CCN1CC2 | 12.3 nM |
| C1=C(c2ccnnc2)CC2CCC1N2 (centres undefined) | 10 nM |
| CN1C2CCC1CN(c1cncnc1)CC2 (centres undefined) | 2.09 nM |

| Compound | Ki |
| --- | --- |
| CN(C)C(=O)C1=CCC2CCC1N2C (centres undefined) | 2000 nM |
| CN1C2CCC1CN(c1cnccn1)CC2 (centres undefined) | 263 nM |
| CN(C)C(=S)C1=CCC2CCC1N2 (centres undefined) | 2450 nM |
| S=c1cccc2n1CC1CNCC2C1 (centres undefined) | 0.832 nM |
| C1=C(c2cnccn2)CC2CCC1N2 (centres undefined) | 30.9 nM |
| C1=C(c2cncnc2)C2CCC(CC1)N2 (centres undefined) | 0.141 nM |
| C1=C(c2cccnc2)C2CCC(C1)N2 (centres undefined) | 1.58 nM |
| CC(=O)C1=CCC2CCC1N2C (centres undefined) | 120 nM |
| C1=C(c2cncnc2)C2CCC(C1)N2 (centres undefined) | 3.72 nM |
| O=c1c(Br)cc(Br)c2n1CC1CNCC2C1 (centres undefined) | 10.7 nM |
| C1=C(c2ccnnc2)C2CCC(CC1)N2 (centres undefined) | 19.1 nM |
| O=c1c(Cl)cc(Cl)c2n1CC1CNCC2C1 (centres undefined) | 2.51 nM |
| Fc1ccc(C2CC3CCC2N3)cn1 (centres undefined) | 0.0282 nM |
| O=c1ccc(I)c2n1CC1CNCC2C1 (centres undefined) | 0.229 nM |
| C1=C(c2ccnnc2)C2CCC(C1)N2 (centres undefined) | 7.94 nM |
| c1ncc2c(n1)C1CCC(C2)N1 (centres undefined) | > 10000 nM |
| CN1CC2CC(C1)c1cccc(=O)n1C2 (centres undefined) | 5.75 nM |
| Clc1ccc(C2=CN3CCC2CC3)cn1 | 2.29 nM |
| CN1C2C=C(c3cncnc3)CC1CC2 (stereo in doubt; 33) | 43.7 nM |
| CN1C2CC=C(c3ccc(Cl)nc3)C1CC2 (centres undefined) | 8.91 nM |
